# Values of other authors in US20180228757A1, “EDIBLE PARTICLES COMPRISING A POLYSACCHARIDE AND A LIPID” (PERORA GMBH, priority 2015, published 2018).
# Settings: infusion into the duodenum by means of a feeding tube
row,SMILES,satiety signalling
1,CCCCCCCCCCCC(=O)O [lauric acid],strong satiety signalling
2,CCCCCCCC/C=C\CCCCCCCC(=O)O [oleic acid],strong satiety signalling
